Numbered stars: 1 amine (or outer) side, 2 acyl side, 3 side chain; on linkers, the order of the positions; unused ones are H or OH. Bridge positions count the residues as written; N and C are the ends. Square brackets hold non-standard residues; d marks the D form. Peptide text beside a SMILES is read from it. * marks the point of attachment. C20 diacid = O=C(O)CCCCCCCCCCCCCCCCCCC(=O)*; γGlu = O=C(O)[C@H](CCC(=O)[*:2])N[*:1]; Hyp = O=C(O)[C@@H]1C[C@@H](O)CN1; NMeI = CC[C@H](C)[C@H](NC)C(=O)O; Sar = CNCC(=O)O
How the values were obtained:
[1] = target: T1, human amylin receptor 3 (hAMYR3) consisting of hCTR2 co-expressed with human Receptor Activity Modifying Protein 3 (hRAMP3) (Homo sapiens, UniProt O60896+P30988); experiment: hAMYR3 assay: induction of cAMP (AlphaScreen cAMP Assay kit) in COS7 cells expressing hAMYR3; format: cell-based; details: cAMP induction in COS7 cells expressing hAMYR3; average of a minimum of 3 determinations; read-out: hAMY R3 EC50
T1 construct: expressed in transfected cells
T1 sequence (P30988 25-474): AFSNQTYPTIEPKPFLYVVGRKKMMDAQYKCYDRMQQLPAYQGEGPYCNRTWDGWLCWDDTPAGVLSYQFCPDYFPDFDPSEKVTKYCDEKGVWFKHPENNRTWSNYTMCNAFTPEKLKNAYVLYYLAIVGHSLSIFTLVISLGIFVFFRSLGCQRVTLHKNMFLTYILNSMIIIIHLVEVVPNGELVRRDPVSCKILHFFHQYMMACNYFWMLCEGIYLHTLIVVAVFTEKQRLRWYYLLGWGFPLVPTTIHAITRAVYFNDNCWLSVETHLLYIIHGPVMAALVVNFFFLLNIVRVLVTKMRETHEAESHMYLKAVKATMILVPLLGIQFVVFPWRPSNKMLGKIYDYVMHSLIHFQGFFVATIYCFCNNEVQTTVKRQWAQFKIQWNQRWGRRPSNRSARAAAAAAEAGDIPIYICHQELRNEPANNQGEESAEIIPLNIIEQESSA
T1 sequence (O60896 24-148 partner): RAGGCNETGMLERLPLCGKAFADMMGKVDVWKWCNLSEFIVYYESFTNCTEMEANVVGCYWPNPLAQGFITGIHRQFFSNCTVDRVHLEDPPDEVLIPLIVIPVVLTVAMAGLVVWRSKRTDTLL
How it was run: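 cAMP accumulation read by AlphaScreen in lysates of RAMP-naive COS7 cells stably transfected with hCTR2 plus hRAMP3. Cells exposed to peptide dilutions for 15 min, 37° C, with 100 µM IBMX; 4PL fitting gave EC50 and efficacy relative to pramlintide.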

[2] = Solubility assessment (turbidity absorbance at 325 nm); format: physicochemical; details: stock 2 mg/ml diluted 1:1, ambient temperature (typically 25°C), n=1; for Solubility, Acetate buffer pH 4: 100 mM acetate buffer pH 4.0; for Solubility, Acetate buffer pH 5: 100 mM acetate buffer pH 5.0; for Solubility, Histidine buffer pH 6: 100 mM histidine buffer pH 6.0; for Solubility, Histidine buffer pH 7: 100 mM histidine buffer pH 7.0; for Solubility, Phosphate buffer pH 6: 100 mM phosphate buffer pH 6.0; for Solubility, Phosphate buffer pH 7: 100 mM phosphate buffer pH 7.0; for Solubility, Phosphate buffer pH 7.5: 100 mM phosphate buffer pH7.5
How it was run: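 Read-out: turbidity as absorbance at 325 nm (280 nm also read), single samples, ambient temperature of typically 25°C. Samples were a 1:1 mix of 2 mg/ml stock (water, pH 2.5) with 100 mM acetate, histidine or phosphate buffers spanning pH 4.0–7.5. Cut-off: A325 ≤ 0.02 indicates ≥ 1 mg/ml.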

[3] = target: T2, human calcitonin receptor (hCTR2) (Homo sapiens, UniProt P30988); experiment: hCTR2 assay: induction of cAMP (AlphaScreen cAMP Assay kit) in COS7 cells expressing hCTR2; format: cell-based; details: cAMP induction in COS7 cells expressing hCTR2; average of a minimum of 3 determinations; read-out: hCTR2 EC50
T2 construct: expressed in transfected cells
T2 sequence (P30988 25-474): T1 sequence (P30988 25-474)
How it was run: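 Cells were seeded one day ahead, washed, then exposed to rising peptide concentrations for 15 min at 37° C in the presence of 100 µM IBMX. After lysis for 10 min at room temperature, cAMP was quantified by AlphaScreen and EC50 values derived by 4PL fitting.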

EC50 [1] | Solubility, Acetate buffer pH 4 [2] | Solubility, Acetate buffer pH 5 [2] | Solubility, Histidine buffer pH 6 [2] | Solubility, Histidine buffer pH 7 [2] | Solubility, Phosphate buffer pH 6 [2] | Solubility, Phosphate buffer pH 7 [2] | Solubility, Phosphate buffer pH 7.5 [2] | EC50 [3] | SMILES
0.27 nM | SS (SS indicates solubility ≥ 1mg/ml) | SS (SS indicates solubility ≥ 1mg/ml) | SS (SS indicates solubility ≥ 1mg/ml) | SS (SS indicates solubility ≥ 1mg/ml) | SS (SS indicates solubility ≥ 1mg/ml) | II (II indicates solubility ≤ 1 mg/ml) | SS (SS indicates solubility ≥ 1mg/ml) | 0.11 nM | CC[C@H](C)[C@@H](C(=O)N[C@@H](CC(C)C)C(=O)N[C@@H](CO)C(=O)N[C@@H](CO)C(=O)N[C@H](C(=O)N[C@@H](CCC(=O)O)C(=O)N[C@H](C(=O)NCC(=O)N[C@@H](CO)C(=O)N[C@@H](CCC(=O)O)C(=O)N[C@H](C(=O)N1C[C@H](O)C[C@H]1C(N)=O)[C@@H](C)O)C(C)C)[C@@H](C)O)N(C)C(=O)CN(C)C(=O)[C@H](Cc1ccccc1)NC(=O)[C@H](CO)NC(=O)[C@H](CO)NC(=O)[C@H](CCCNC(=N)N)NC(=O)[C@H](Cc1c[nH]cn1)NC(=O)[C@H](CC(C)C)NC(=O)[C@H](Cc1ccccc1)NC(=O)[C@H](CCC(=O)O)NC(=O)[C@H](C)NC(=O)[C@H](CC(C)C)NC(=O)[C@H](CCCNC(=N)N)NC(=O)[C@H](CCC(=O)O)NC(=O)[C@@H](NC(=O)[C@H](C)NC(=O)[C@@H]1CSSC[C@H](NC(=O)[C@H](Cc2c[nH]c3ccccc23)NC(=O)CC[C@H](NC(=O)CCCCCCCCCCCCCCCCCCC(=O)O)C(=O)O)C(=O)NCC(=O)N[C@@H]([C@@H](C)O)C(=O)N[C@@H](C)C(=O)N[C@@H]([C@@H](C)O)C(=O)N1)[C@@H](C)O [Compound 165, [19CD]-isoGlu-WC()GTATC()ATERLAEFLHRSSF-Gly(Me)-Ile(Me)-LSSTEVGSET-Hyp-NH2] ({C20 diacid-γGlu}-WCGTATCATERLAEFLHRSSF[Sar][NMeI]LSSTEVGSET[Hyp]-NH2; disulfide 2-7)
0.11 nM | SS (SS indicates solubility ≥ 1mg/ml) | SS (SS indicates solubility ≥ 1mg/ml) | SS (SS indicates solubility ≥ 1mg/ml) | SS (SS indicates solubility ≥ 1mg/ml) | SS (SS indicates solubility ≥ 1mg/ml) | SS (SS indicates solubility ≥ 1mg/ml) | SS (SS indicates solubility ≥ 1mg/ml) | 0.078 nM | CC[C@H](C)[C@@H](C(=O)N[C@@H](CC(C)C)C(=O)N[C@@H](CO)C(=O)N[C@@H](CO)C(=O)N[C@H](C(=O)N[C@@H](CCC(=O)O)C(=O)N[C@H](C(=O)NCC(=O)N[C@@H](CO)C(=O)N[C@@H](CCC(=O)O)C(=O)N[C@H](C(=O)N1C[C@H](O)C[C@H]1C(N)=O)[C@@H](C)O)C(C)C)[C@@H](C)O)N(C)C(=O)CN(C)C(=O)[C@H](Cc1ccccc1)NC(=O)[C@H](CO)NC(=O)[C@H](CO)NC(=O)[C@H](CCCNC(=N)N)NC(=O)[C@H](Cc1c[nH]cn1)NC(=O)[C@H](CC(C)C)NC(=O)[C@H](Cc1ccccc1)NC(=O)[C@H](CCC(=O)O)NC(=O)[C@H](C)NC(=O)[C@H](CC(C)C)NC(=O)[C@H](CCCNC(=N)N)NC(=O)[C@H](CCC(=O)O)NC(=O)[C@@H](NC(=O)[C@H](C)NC(=O)[C@@H]1CSSC[C@H](NC(=O)[C@H](CCCNC(=N)N)NC(=O)CC[C@H](NC(=O)CCCCCCCCCCCCCCCCCCC(=O)O)C(=O)O)C(=O)NCC(=O)N[C@@H]([C@@H](C)O)C(=O)N[C@@H](C)C(=O)N[C@@H]([C@@H](C)O)C(=O)N1)[C@@H](C)O [Compound 167, [19CD]-isoGlu-RC()GTATC()ATERLAEFLHRSSF-Gly(Me)-Ile(Me)-LSSTEVGSET-Hyp-NH2] ({C20 diacid-γGlu}-RCGTATCATERLAEFLHRSSF[Sar][NMeI]LSSTEVGSET[Hyp]-NH2; disulfide 2-7)
0.7 nM | SS (SS indicates solubility ≥ 1mg/ml) | II (II indicates solubility ≤ 1 mg/ml) | SS (SS indicates solubility ≥ 1mg/ml) | SS (SS indicates solubility ≥ 1mg/ml) | SS (SS indicates solubility ≥ 1mg/ml) | SS (SS indicates solubility ≥ 1mg/ml) | SS (SS indicates solubility ≥ 1mg/ml) | 0.57 nM | CC[C@H](C)[C@@H](C(=O)N[C@@H](CC(C)C)C(=O)N[C@@H](CO)C(=O)N[C@@H](CO)C(=O)N[C@H](C(=O)N[C@@H](CCC(=O)O)C(=O)N[C@H](C(=O)NCC(=O)N[C@@H](CO)C(=O)N[C@@H](CCC(=O)O)C(=O)N[C@H](C(=O)N1C[C@H](O)C[C@H]1C(N)=O)[C@@H](C)O)C(C)C)[C@@H](C)O)N(C)C(=O)[C@H](C)NC(=O)CN(C)C(=O)[C@H](Cc1ccccc1)NC(=O)[C@H](CO)NC(=O)[C@H](CO)NC(=O)[C@H](CO)NC(=O)[C@H](CO)NC(=O)[C@H](CCCNC(=N)N)NC(=O)[C@H](Cc1c[nH]cn1)NC(=O)[C@H](CC(C)C)NC(=O)[C@H](Cc1ccccc1)NC(=O)[C@H](CCC(=O)O)NC(=O)[C@H](C)NC(=O)[C@H](CC(C)C)NC(=O)[C@H](CCCNC(=N)N)NC(=O)[C@H](CCC(=O)O)NC(=O)[C@@H](NC(=O)[C@H](C)NC(=O)[C@@H]1CSSC[C@H](NC(=O)[C@H](CCCCN)NC(=O)[C@H](CCCCN)NC(=O)CC[C@H](NC(=O)CCCCCCCCCCCCCCCCCCC(=O)O)C(=O)O)C(=O)N[C@@H](CCC(=O)O)C(=O)N[C@@H]([C@@H](C)O)C(=O)N[C@@H](C)C(=O)N[C@@H]([C@@H](C)O)C(=O)N1)[C@@H](C)O [Compound 168, [19CD]-isoGlu-KKC()ETATC()ATERLAEFLHRSSSSF-Gly(Me)-A-Ile(Me)-LSSTEVGSET-Hyp-NH2] ({C20 diacid-γGlu}-KKCETATCATERLAEFLHRSSSSF[Sar]A[NMeI]LSSTEVGSET[Hyp]-NH2; disulfide 3-8)
